In patent US7160545B2, “HLA-A24 binding peptides of enhancer of zeste homolog 2” (Green Peptide Co., Ltd., priority 2005, dated 2007):
Read-outs that look alike come from different tables or passages of the source. No end group written: not given here.

Experiments:
[1] = test system: IgG in the plasma of prostate cancer patients; assay: ELISA for peptide-specific IgG in plasma of prostate cancer patients; assay type: binding, human; conditions: for Humoral response, Total (IgG-positive patients/patients tested): positive when OD more than 0.04; for IgG reactive to peptide, OD: 1:100-diluted plasma, cut-off OD 0.04, — = not positive
Protocol: Peptide-specific IgG levels in the plasma were measured by ELISA using a previously reported method (20). In brief, peptide (20 μg/well)-immobilized plates were blocked with Block Ace (Yukijirushi, Tokyo, Japan) and washed with 0.05% Tween20-PBS, after which 100 μl/well of plasma sample diluted with 0.05% Tween20-Block Ace was added to the plates. After a 2-hr incubation at 37° C., the plates were washed and further incubated for 2 hr with a 1:1000-diluted rabbit anti-human IgG (γ-chain-specific) (DAKO, Glostrup, Denmark). The plates were washed, and then 100 μl of 1:100-diluted goat anti-rabbit IgG-conjugated horseradish peroxidase (EnVision; DAKO) was added to each well, and the plates were incubated at room temperature for 40 min. After the plates were washed once, 100 μl/well of tetramethyl benzidine substrate solution (KPL, Guildford, UK) was added, and the reaction was stopped by the addition of 1 M phosphoric acid. The values are shown as optical density (OD) units/ml. To confirm the specificity of IgG to the indicated EZH2 peptide, sample plasma was cultured with plates coated with either the corresponding EZH2 peptide or an irrelevant EZH2 peptide. Thereafter, the levels of EZH2 peptide-specific IgG in the resulting supernatant were determined by ELISA.
As shown above, we investigated whether IgG reactive to each of the 11 EZH2-derived peptides could be detected in the plasma of 10 prostate cancer patients. These patients were not limited to the HLA-A24^+ subjects, because peptide-specific IgG was not restricted to MHC class I molecules, as reported previously (22). The mean+2 SD value (OD: 0.04), which was determined as the level of IgG reactive to the HIV peptide in plasma from HIV-negative healthy donors, was used as a cut-off value at a 1:100 diluted plasma in the ELISA.

[2] = test system: PBMCs of HLA-A24^+ prostate cancer patients; assay: IFN-γ production of peptide-stimulated PBMCs against peptide-pulsed C1R-A24 cells (peptide-specific CTL assay); assay type: cell-based, human; conditions: for Cancer patients in whom the peptide induced peptide-specific CTLs: HLA-A24^+ prostate cancer patients; for IFN-γ production: day 15, C1R-A24 cells pulsed with corresponding peptide, HIV peptide background subtracted, mean of 2 wells
Protocol: The assay for the detection of peptide-specific CTLs in PBMCs was performed according to a previously reported method (21). In brief, PBMCs (1×10^5 cells/well) were incubated with 10 μg/ml of each peptide in a U-bottom-type 96-well microculture plate (Nunc, Roskilde, Denmark) at a volume of 200 μl of culture medium. The culture medium consisted of 45% RPMI-1640, 45% AIM-V medium (Gibco BRL, Grand Island, N.Y.), 10% FCS, 100 U/ml of interleukin (IL)-2, and 0.1 mM MEM nonessential amino acid solution (Gibco BRL, Grand Island, N.Y.). Half of the culture medium was removed and replaced with new medium containing a corresponding peptide (20 μg/ml) every 3 days. On the 15th day of culture, the cultured cells were separated into 4 wells, and two of which were used for EZH2 peptide-pulsed C1R-A24 cells, and the other two of which were used for the HIV peptide-pulsed C1R-A24 cells. C1R-A24 is an HLA-A*2402-expressing subline of C1R lymphoma (Oiso M, Eura M, Katsura F, Takiguchi M, Sobao Y, Masuyama K, Nakashima M, Itoh K, Ishikawa T. A newly identified MAGE-3-derived epitope recognized by HLA-A24-restricted cytotoxic T lymphocytes. Int. J. Cancer 81: 387–394, 1999, this reference is incorporated herein by reference). After an 18-hr incubation period, the supernatants were collected and the level of IFN-γ was determined by ELISA. The EZH2-170 peptide was included in this experiment as an EZH2 peptide that was less frequently recognized by the humoral immune system.

LNCaP-A24 cells [3] = assay: Inhibition of the cytotoxicity of EZH2 peptide-stimulated PBMCs by antibodies; assay type: cell-based, human; conditions: mAb 20 μg/ml; effector/target ratio 10/1; patients 17, 18, 21
Protocol: We further tried to confirm which effector cells were responsible for the cytotoxicity. EZH2 peptide-stimulated PBMCs from patients 17, 18, and 21 were tested for their cytotoxicity against the LNCaP-A24 cells. The 6-hr cytotoxicity assay was performed in the presence of the indicated monoclonal antibody (mAb). The assay was done at an effector/target ratio of 10/1. Either anti-HLA class I (W6/32: mouse IgG2a), anti-HLA-DR (L243: mouse IgG2a), anti-CD4 (Nu-Th/i: mouse IgG1), anti-CD8 (Nu-Ts/c: mouse IgG2a), or anti-CD14 (H14: mouse IgG2a) mAb was added to the wells at a dose of 20 μg/ml at the start of the assay.

LNCaP-A24 cells [4] = assay: 6-hr 51Cr-release cytotoxicity of EZH2 peptide-stimulated PBMCs; assay type: cell-based, human; conditions: LNCaP-A24 (HLA-A24^+) versus LNCaP (HLA-A24^−) and PHA-stimulated T cell blasts, PBMCs from 3 HLA-A24^+ patients
From the text: To investigate HLA-A24-restricted cytotoxicity, the level of cytotoxicity against the LNCaP was compared with the level of cytotoxicity against its transfectant, LNCaP-A24, which is a subline that transfected with the HLA-A*2402 gene and express the gene stably (Yao A, Harada M, Matsueda S, Ishihara Y, Shomura H, Noguchi M, Matsuoka K, Hara I, Kamidono S, Itoh K, Identification of parathyroid hormone-related protein-derived peptides immunogenic in human histocompatibility leukocyte antigen-A24^+ prostate cancer patients, British Journal of Cancer, 91:287–296, 2004, this reference is incorporated herein by reference). All cell lines were maintained in RPMI-1640 medium (Gibco BRL, Grand Island, N.Y.) supplemented with 10% FCS.
The PBMCs from 3 HLA-A24^+ prostate cancer patients were then stimulated in vitro with the indicated EZH2 peptide, and examined for their cytotoxicity against HLA-A24^− LNCaP cells, HLA-A24^+ LNCaP-A24, and HLA-A24^+ PHA-stimulated T cell blasts. Specifically, after in vitro stimulation with the EZH2 peptides, the peptide-stimulated PBMCs were additionally cultured with 100 U/ml IL-2 for approximately 10 days in 96 round-well plates in order to obtain a sufficient number of cells to carry out a cytotoxicity assay. Then, these cells were tested for cytotoxicity against LNCaP, LNCaP-A24, and PHA-stimulated T cell blasts by a 6-hr ^51Cr-release assay. Two thousand ^51Cr-labeled cells per well were cultured with effector cells in 96 round-well plates at the indicated effector/target ratios.

[5] = significant: p < 0.05 and >100 pg/ml of IFN-γ production

TYYDNFCAI (EZH2 446-454) [EZH2-446]
Humoral response, Total (IgG-positive patients/patients tested) ([1]; 10 prostate cancer patients): 0/10

RFYIQMCYEL (Flu virus-derived peptide) [reference compound]
Reactivity of peptide-stimulated PBMCs, Total (patients with significant IFN-γ production/patients tested) [2]: 3/10

KYDCFLHPF [EZH2-291]
Cytotoxicity against LNCaP-A24 cells on addition of anti-class I or anti-CD8 mAb (LNCaP-A24 cells [3]): significantly inhibited
Cytotoxicity of peptide-stimulated PBMCs / induction of HLA-A24-restricted prostate cancer-reactive CTLs (LNCaP-A24 cells [4]): efficiently induce HLA-A24-restricted and prostate cancer-reactive CTLs
Cytotoxicity of peptide-stimulated PBMCs / induction of HLA-A24-restricted prostate cancer-reactive CTLs (LNCaP-A24 cells [4]; listed as EZH2 291–299): efficiently induced HLA-A24-restricted and prostate cancer-reactive CTLs

IFVELVNAL (EZH2 170-178) [EZH2-170]
Cancer patients in whom the peptide induced peptide-specific CTLs [2]: 1 of 10
IFN-γ production ([2]; patient #11): 10 pg/mL
IFN-γ production ([2]; patient #12): 15 pg/mL
IFN-γ production ([2]; patient #13): 181 pg/mL
IFN-γ production ([2]; patient #14): 35 pg/mL
IFN-γ production ([2]; patient #15): 10 pg/mL
IFN-γ production ([2]; patient #16): 30 pg/mL
IFN-γ production ([2]; patient #17): 87 pg/mL
IFN-γ production ([2]; patient #18): 0 pg/mL
IFN-γ production ([2]; patient #19): 16 pg/mL
IFN-γ production ([2]; patient #20): 82 pg/mL
Reactivity of peptide-stimulated PBMCs, Total (patients with significant IFN-γ production/patients tested) [2, 5]: 1/10
Humoral response, Total (IgG-positive patients/patients tested) ([1]; 10 prostate cancer patients): 1/10
IgG reactive to peptide, OD ([1]; prostate cancer patient #8): 0.043 OD

NFMVEDETVL (EZH2 119-128) [EZH2-119]
Humoral response, Total (IgG-positive patients/patients tested) ([1]; 10 prostate cancer patients): 1/10
IgG reactive to peptide, OD ([1]; prostate cancer patient #8): 0.047 OD

DFPTQVIPL (EZH2 90-98) [EZH2-90]
Humoral response, Total (IgG-positive patients/patients tested) ([1]; 10 prostate cancer patients): 0/10

DYRYSQADAL (EZH2 725-734) [EZH2-725]
Humoral response, Total (IgG-positive patients/patients tested) ([1]; 10 prostate cancer patients): 2/10
IgG reactive to peptide, OD ([1]; prostate cancer patient #2): 0.049 OD
IgG reactive to peptide, OD ([1]; prostate cancer patient #8): 0.056 OD

KYKELTEQQL (EZH2 243-252) [EZH2-243]
Cancer patients in whom the peptide induced peptide-specific CTLs [2]: 2 of 10
IFN-γ production ([2]; patient #11): 124 pg/mL
IFN-γ production ([2]; patient #12): 25 pg/mL
IFN-γ production ([2]; patient #13): 0 pg/mL
IFN-γ production ([2]; patient #14): 13 pg/mL
IFN-γ production ([2]; patient #15): 27 pg/mL
IFN-γ production ([2]; patient #16): 27 pg/mL
IFN-γ production ([2]; patient #17): 44 pg/mL
IFN-γ production ([2]; patient #18): 13 pg/mL
IFN-γ production ([2]; patient #19): 71 pg/mL
IFN-γ production ([2]; patient #20): 171 pg/mL
Reactivity of peptide-stimulated PBMCs, Total (patients with significant IFN-γ production/patients tested) [2, 5]: 2/10
Patients in whose plasma IgG reactive to the peptide was detected ([1]; 10 prostate cancer patients): 6 of 10 patients
Humoral response, Total (IgG-positive patients/patients tested) ([1]; 10 prostate cancer patients): 6/10
IgG reactive to peptide, OD ([1]; prostate cancer patient #1): 0.055 OD
IgG reactive to peptide, OD ([1]; prostate cancer patient #2): 0.080 OD
IgG reactive to peptide, OD ([1]; prostate cancer patient #7): 0.041 OD
IgG reactive to peptide, OD ([1]; prostate cancer patient #8): 0.150 OD
IgG reactive to peptide, OD ([1]; prostate cancer patient #9): 0.089 OD
IgG reactive to peptide, OD ([1]; prostate cancer patient #10): 0.067 OD
Share of prostate cancer patients with IgG reactive to the peptide detected in plasma ([1]; summary statement): almost half

TYGPVFMCL [EBV, reference compound]
Reactivity of peptide-stimulated PBMCs, Total (patients with significant IFN-γ production/patients tested) [2]: 5/10

KYVGIEREM [EZH2-735]
Cytotoxicity against LNCaP-A24 cells on addition of anti-class I or anti-CD8 mAb (LNCaP-A24 cells [3]): significantly inhibited
Cytotoxicity of peptide-stimulated PBMCs / induction of HLA-A24-restricted prostate cancer-reactive CTLs (LNCaP-A24 cells [4]): efficiently induce HLA-A24-restricted and prostate cancer-reactive CTLs
Cytotoxicity of peptide-stimulated PBMCs / induction of HLA-A24-restricted prostate cancer-reactive CTLs (LNCaP-A24 cells [4]; listed as EZH2 735–743): efficiently induced HLA-A24-restricted and prostate cancer-reactive CTLs

KYMCSFLFNL (EZH2 660-669) [EZH2-660]
Humoral response, Total (IgG-positive patients/patients tested) ([1]; 10 prostate cancer patients): 2/10
IgG reactive to peptide, OD ([1]; prostate cancer patient #2): 0.105 OD
IgG reactive to peptide, OD ([1]; prostate cancer patient #10): 0.058 OD
